# Several values for one entry are separate records, joined by “and”; a condition that tells them apart may be missing. Equal entries are not always repeated.
# Columns and labels:
# Guanylate Cyclase-C = target: T1, Guanylate Cyclase-C (Homo sapiens, UniProt P25092); test: Stimulation of guanylate cyclase-C induced by the toxin STa in T84 cells (cGMP accumulation); assay type: cell-based; details: for inhibition at 50 µM: T84, test compound 50 μM vs STa (1 μM) group, read-out: % of inhibition (Compound x STa); for cGMP, pmol/10 min/mg: test compound 50 μM, 10 min pre-incubation, then STa 1 μM for 10 min, T84 cells, mean ± SEM
# T1 construct: host or cells: T84 cells
# T1 sequence (P25092 24-1073): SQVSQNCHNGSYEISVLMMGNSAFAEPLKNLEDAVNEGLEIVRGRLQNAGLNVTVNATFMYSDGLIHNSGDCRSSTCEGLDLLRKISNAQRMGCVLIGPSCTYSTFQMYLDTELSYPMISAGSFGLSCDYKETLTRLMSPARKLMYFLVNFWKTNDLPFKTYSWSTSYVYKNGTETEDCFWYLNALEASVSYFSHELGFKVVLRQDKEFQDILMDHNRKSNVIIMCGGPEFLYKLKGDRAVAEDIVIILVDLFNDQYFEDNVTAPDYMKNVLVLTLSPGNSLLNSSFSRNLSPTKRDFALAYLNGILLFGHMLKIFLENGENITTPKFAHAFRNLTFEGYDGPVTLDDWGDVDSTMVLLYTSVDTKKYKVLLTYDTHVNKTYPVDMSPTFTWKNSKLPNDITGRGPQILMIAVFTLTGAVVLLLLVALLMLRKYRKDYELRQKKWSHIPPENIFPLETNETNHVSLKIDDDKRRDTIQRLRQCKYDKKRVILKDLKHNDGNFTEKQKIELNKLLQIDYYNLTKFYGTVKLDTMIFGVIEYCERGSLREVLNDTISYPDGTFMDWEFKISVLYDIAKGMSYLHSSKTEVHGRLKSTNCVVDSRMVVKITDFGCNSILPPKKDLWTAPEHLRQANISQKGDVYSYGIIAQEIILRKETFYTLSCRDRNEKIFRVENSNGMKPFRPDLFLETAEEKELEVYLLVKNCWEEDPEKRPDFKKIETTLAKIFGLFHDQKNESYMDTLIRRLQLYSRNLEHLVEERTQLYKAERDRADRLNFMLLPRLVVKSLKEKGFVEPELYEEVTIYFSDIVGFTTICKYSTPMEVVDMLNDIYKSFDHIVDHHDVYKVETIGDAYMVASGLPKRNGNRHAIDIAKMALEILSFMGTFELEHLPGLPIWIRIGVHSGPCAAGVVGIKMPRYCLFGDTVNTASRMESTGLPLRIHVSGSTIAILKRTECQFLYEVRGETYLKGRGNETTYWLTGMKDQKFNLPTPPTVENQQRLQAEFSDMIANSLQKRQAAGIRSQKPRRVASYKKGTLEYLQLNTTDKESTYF
# Experimental: Protocol for the Stimulation of Guanylate Cyclase-C Induced by the Toxin STa in T84 Cells
# Cells from the T84 line (ATCC CCL-248) are subculture according to supplier's instructions. Briefly, after washing the culture flask (75 cm^2) using 3 mL of 0.25% Trypsin solution (w/v) and 0.53 mM EDTA solution to remove the traces of serum, the same volume of trypsin is added to each bottle, and cells are observed under a microscope until detachment of the cellular layer (usually 8-10 minutes).
# Preparation of assay plates (12-well plates) follows after adding 8 mL of culture medium (DMEM-F12 supplemented with 10% fetal bovine serum and penicillin-streptomycin (50 IU/mL:50 μg/mL) and centrifugation of the cell homogenate at 2000 rpm for 5 minutes (at 25° C.).
# With the aid of a 1 mL pipet connected to a vacuum pump, the supernatant is aspirated and the cells resuspended with culture medium (with necessary volume to maintain the ratio of 1:4, i.e. 1 culture flask originates 4 12-well plates). After homogenization of the cells, with an aid of a pipette, it is added 2 mL of the cell suspension to each well of the plate. The growth occurs in an incubator under controlled conditions (37° C., 5% CO2 atmosphere) until confluence of each well (typically 8-10 days).
# Initially, the culture medium is aspirated using a 1 mL pipette connected to a vacuum pump and the cells are washed at least 3 times with 0.5 mL of a Dulbecco Phosphate Buffered Saline (DPBS; 37° C.) using a 1 mL pipette attached to one the vacuum pump. In the sequence, 0.5 mL of DPBS is added in the presence and/or absence of 1-metil-3-isobutyl xanthine (1 mM), dimethylsulfoxide (0.1% v/v) and the test compound and incubated for 10 minutes in an oven (37° C., 5% CO2 atmosphere).
# After the incubation period, the cells are stimulated with STa toxin (1 μM, 5 μL) and incubated in an incubator (37° C., 5% CO2 atmosphere) for 10 minutes. After the stimulation period, the volume of the supernatant is aspirated using a 1 mL pipette connected to a vacuum pump and the cGMP is extracted by the addition of a hydrochloric acid solution 0.1 M (0.3 mL, using a pipette), pH 4, under constant stirring (speed 4) in a shaker type “rotator” (Lab-line Instruments, model number 4625), for 20 minutes. After the extraction period, the volume of each well is centrifuged (15000 rpm, 5 minutes, 25° C.) and an aliquot of the supernatant (0.3 mL) is quickly stored in a freezer at −20° C. for the subsequent quantification of the content of cGMP by the immunoassay method developed and described by HORTON et al. (1992) [Horton, J. K.; Martin, R. C.; Kalinka, S.; Cushing, A.; Kitcher, J. P.; O'Sullivan, M. J.; Baxendale, P. M., “Enzime immunoassays for the estimation of adenosine 3′,5′ cyclic monophosphate and guanosine 3′,5′ cyclic monophosphate in biological fluids”. J Immunol Methods 1992, 155:31-40].
# The protein precipitate or “pellets” are digested directly by the addition of 0.5 mL of a 0.1 M sodium hydroxide solution, under constant agitation in a shaker type “rotator” (speed 7), for 30 minutes. Posteriorly, this protein fraction is used in the tests to determine proteins, employing a method developed by BRADFORD (1976). [M. M. BRADFORD, “A rapid and sensitive method for the quantitation of microgram quantities of protein utilizing the principle of protein-dye binding”. Analytical Biochemistry, 1976, 72:248-254].
# [1] = Determination of absolute bioavailability in Beagle dogs (oral vs intravenous, plasma LC-MS/MS); assay type: in vivo; details: dog, male Beagle dogs, oral powder in capsules 3 mg/kg vs intravenous bolus 1, 3 and 10 mg/kg
# Text: Protocol for Determination of Absolute Bioavailability
# The study used male Beagle dogs, aged between 2 to 4 years old, weighing between 8 to 12 kg, and kept in food control and disposal of water ad libitum during the study.
# The dogs were shaving in the radial portion of the front paws, performing aseptic on site with the aid of moistened gauze with 70% alcohol.
# Entered the 21G catheter (one in each paw in the intravenous administration protocol and a single paw in the oral administration protocol) in order to access the cephalic vein.
# The blood samples were collected from animals depending on the established sampling times by taking 1.5 mL of blood using a 3 mL syringe. The samples were transferred to heparinized tube collection.
# c) Route of Administration
# The administration of the study compounds was made orally and intravenously.
# The intravenous administration of the compounds was carried out in bolus, and has through one of the cephalic veins of dogs. Concentrations were administered 1 mg/kg; 3 mg/kg and 10 mg/kg in one, on different days.
# The oral administration of the drug was provided as a powder in capsules at the dose of 3 mg/kg, which were all completely ingested by dogs.
# For the intravenous administration, the blood samples (1.5 ml) were collected in the following predetermined time intervals: 0, 0.033, 0.083, 0.17, 0.25, 0.33, 0 5; 1; 2; 3; 4; 6; 8; 12 and 24 hours.
# For the oral administration, the blood samples (1.5 ml) were collected in the following predetermined time intervals: 0, 0.33, 0.67, 1, 1.5, 2, 3, 4, and 6, 8, 12 and 24 hours.
# The compounds tested are II, IV, VI, and XI; described in TABLE 1.
# The heparinized tubes collections were placed in a centrifuge and were processed for 10 minutes at 2500 rpm per minute. The plasma was separated and put into other tubes. The plasma was analyzed by Liquid chromatography-tandem mass spectrometry (LC-MS/MS).
Compound,melting point,inhibition at 50 µM (Guanylate Cyclase-C; cGMP accumulation in T84 cells),"cGMP, pmol/10 min/mg (Guanylate Cyclase-C)",bioavailability [1],"% of inhibition (Compound x STa) (Guanylate Cyclase-C; test compound 50 μM vs STa (1 μM) group, cGMP accumulation in T84 cells)"
"Cn1c2c(c(=O)n(C)c1=S)C(c1cc(F)cc(C(F)(F)F)c1)C1=C(N2)c2ccccc2C1=O (stereo not shown) [Compound III, 5-(3-fluoro-5-trifluoromethylphenyl)-1,3-dimethyl-5,11-dihydro-1H-indeno-[2′,1′:5,6]pyrido[2,3-d]pyrimidine-2-thioxo-4,6-dione]",313 °C,~64%,201.50 ± 44.93 pmol/10 min/mg,,
Cn1c2c(c(=O)n(C)c1=S)C(c1csc(C(F)(F)F)c1)C1=C(N2)c2ccccc2C1=O (stereo not shown) [Compound II],178 °C,~94%,57.50 ± 3.16 pmol/10 min/mg,0.16%,
"CCn1c2c(c(=O)n(C)c1=O)C(c1cc(F)cc(C(F)(F)F)c1)C1=C(N2)c2ccccc2C1=O (stereo not shown) [Compound IV, 5-(3-fluoro-5-trifluoromethylphenyl)-1-ethyl-3-methyl-5,11-dihydro-1H-indeno-[2′,1′:5,6]pyrido[2,3-d]pyrimidine-2,4,6-trione]",177 °C,~86%,146.80 ± 22.94 pmol/10 min/mg,0.17%,
"Cn1c2c(c(=O)n(C)c1=O)C(c1ccc3c(c1)OCO3)C1=C(N2)c2ccccc2C1=O (stereo not shown) [Compound IX, 5-(1,3-benzodioxol-5-yl)-1,3-dimethyl-5,11-dihydro-1H-indeno-[2′,1′:5,6]pyrido[2,3-d]pyrimidine-2,4,6-trione]",,,703.50 ± 43.11 pmol/10 min/mg,,
Cn1c2c(c(=O)n(C)c1=O)C(c1csc(C(F)(F)F)c1)C1=C(N2)c2ccccc2C1=O (stereo not shown) [Compound I],265 °C,~62%,210.70 ± 6.11 pmol/10 min/mg,,
"Cn1c2c(c(=O)n(C)c1=S)C(c1cc(C(F)(F)F)cc(C(F)(F)F)c1)C1=C(N2)c2ccccc2C1=O (stereo not shown) [Compound V, 5-(3,5-bistrifluoromethylphenyl)-1,3-dimethyl-5,11-dihydro-1H-indeno-[2′,1′:5,6]pyrido[2,3-d]pyrimidine-2-thioxo-4,6-dione]",314 °C,~62%,,,
"CCn1c2c(c(=O)n(C)c1=O)C(c1cc(C(F)(F)F)cc(C(F)(F)F)c1)C1=C(N2)c2ccccc2C1=O (stereo not shown) [Compound VI, 5-(3,5-bistrifluoromethylphenyl)-1-ethyl-3-methyl-5,11-dihydro-1H-indeno-[2′,1′:5,6]pyrido[2,3-d]pyrimidine-2,4,6-trione]",166 °C,~97%,22.83 ± 3.30 pmol/10 min/mg,0.82%,
"Cn1c2c(c(=O)n(C)c1=O)C(c1cccc3c1OCO3)C1=C(N2)c2ccccc2C1=O (stereo not shown) [Compound VII, 5-(1,3-benzodioxol-4-yl)-1,3-dimethyl-5,11-dihydro-1H-indeno-[2′,1′:5,6]pyrido[2,3-d]pyrimidine-2,4,6-trione]",,~12%,297.30 ± 39.06 pmol/10 min/mg,,
"Cn1c2c(c(=O)n(C)c1=S)C(c1cccc3c1OCO3)C1=C(N2)c2ccccc2C1=O (stereo not shown) [Compound VIII, 5-(1,3-benzodioxol-4-yl)-1,3-dimethyl-5,11-dihydro-1H-indeno-[2′,1′:5,6]pyrido[2,3-d]pyrimidine-2-thioxo-4,6-dione]",310 °C,~66%,350.70 ± 35.80 pmol/10 min/mg,,
"Cn1c2c(c(=O)n(C)c1=O)C(c1cccc3nsnc13)C1=C(N2)c2ccccc2C1=O (stereo not shown) [Compound X, 5-(2,1,3-benzothiadiazol-4-yl)-1,3-dimethyl-5,11-dihydro-1H-indeno-[2′,1′:5,6]pyrido[2,3-d]pyrimidine-2,4,6-trione]",,~36%,668.40 ± 75.46 pmol/10 min/mg,,
"Cn1c2c(c(=O)n(C)c1=O)C(c1ccc3nsnc3c1)C1=C(N2)c2ccccc2C1=O (stereo not shown) [Compound XI, 5-(2,1,3-benzothiadiazol-5-yl)-1,3-dimethyl-5,11-dihydro-1H-indeno-[2′,1′:5,6]pyrido[2,3-d]pyrimidine-2,4,6-trione]",,~70%,171.30 ± 31.68 pmol/10 min/mg,0.35%,
"Cn1c2c(c(=O)n(C)c1=S)C(c1ccc3nsnc3c1)C1=C(N2)c2ccccc2C1=O (stereo not shown) [Compound XII, 5-(2,1,3-benzothiadiazol-5-yl)-1,3-dimethyl-5,11-dihydro-1H-indeno-[2′,1′:5,6]pyrido[2,3-d]pyrimidine-2-thioxo-4,6-dione]",362 °C,~64%,201.50 ± 23.51 pmol/10 min/mg,,
"Cn1c2c(c(=O)n(C)c1=O)C(c1cc(C(F)(F)F)cc(C(F)(F)F)c1)C1=C(N2)c2ccccc2C1=O (stereo not shown) [FPIPP, reference compound]",,~94%,53.53 ± 6.22 pmol/10 min/mg and 74.83 ± 13.26 pmol/10 min/mg and 56.25 ± 13.61 pmol/10 min/mg and 81.00 ± 14.38 pmol/10 min/mg,,~86% and ~83% and ~87%

# — patent US10822333B2, “Pyridopyrimidines derivatives compounds” (BIOLAB SANUS FARMACEUTICA LTDA, priority 2014, dated 2020)
